Measured values: ChEMBL document CHEMBL1137364, “Synthesis and structure-activity relationships of uracil nucleotide derivatives and analogues as agonists at human P2Y2, P2Y4, and P2Y6 receptors” (J Med Chem, 2006)
pEC50: −log10 of the molar value. Activity calls are given as the source filed them. The calls are words filed in the database; no cut-off is given here.

Key:
P2Y purinoceptor 2 [1] = target: T1, P2Y purinoceptor 2 (Homo sapiens, UniProt P41231); assay: Agonist activity at human P2Y2 receptor expressed in 1321N1 cells assessed as IP accumulation by SPA; type: functional, cell-based
T1 sequence (P41231 whole entry): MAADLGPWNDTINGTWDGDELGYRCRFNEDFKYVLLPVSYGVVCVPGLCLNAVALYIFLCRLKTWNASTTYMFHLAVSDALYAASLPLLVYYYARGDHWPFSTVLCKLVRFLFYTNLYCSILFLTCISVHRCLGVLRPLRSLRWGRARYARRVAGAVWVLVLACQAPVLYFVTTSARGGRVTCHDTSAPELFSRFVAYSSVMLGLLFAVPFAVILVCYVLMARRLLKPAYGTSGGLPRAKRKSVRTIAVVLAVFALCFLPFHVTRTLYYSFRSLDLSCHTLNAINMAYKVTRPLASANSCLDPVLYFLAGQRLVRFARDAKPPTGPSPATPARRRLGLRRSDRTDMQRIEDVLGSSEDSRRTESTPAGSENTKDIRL

P2Y purinoceptor 6 [2] = target: T2, P2Y purinoceptor 6 (Homo sapiens, UniProt Q15077); assay: Agonist activity at human P2Y6 receptor expressed in 1321N1 cells assessed as IP accumulation by SPA at 1 uM; type: functional, cell-based
Target sequence in this assay (Q15077 whole entry): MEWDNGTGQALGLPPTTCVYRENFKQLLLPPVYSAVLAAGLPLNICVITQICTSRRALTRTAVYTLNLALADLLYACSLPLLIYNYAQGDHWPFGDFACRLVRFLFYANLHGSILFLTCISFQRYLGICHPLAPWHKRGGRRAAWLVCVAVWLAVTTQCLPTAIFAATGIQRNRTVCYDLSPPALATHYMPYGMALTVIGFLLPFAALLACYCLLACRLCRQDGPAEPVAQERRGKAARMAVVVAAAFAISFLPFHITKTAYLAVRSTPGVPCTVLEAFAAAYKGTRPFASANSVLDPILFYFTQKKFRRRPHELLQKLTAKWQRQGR

P2Y purinoceptor 4 [3] = target: T3, P2Y purinoceptor 4 (Homo sapiens, UniProt P51582); assay: Agonist activity at human P2Y4 receptor expressed in 1321N1 cells assessed as IP accumulation by SPA at 100 uM; type: functional, cell-based
Target sequence in this assay (P51582 whole entry): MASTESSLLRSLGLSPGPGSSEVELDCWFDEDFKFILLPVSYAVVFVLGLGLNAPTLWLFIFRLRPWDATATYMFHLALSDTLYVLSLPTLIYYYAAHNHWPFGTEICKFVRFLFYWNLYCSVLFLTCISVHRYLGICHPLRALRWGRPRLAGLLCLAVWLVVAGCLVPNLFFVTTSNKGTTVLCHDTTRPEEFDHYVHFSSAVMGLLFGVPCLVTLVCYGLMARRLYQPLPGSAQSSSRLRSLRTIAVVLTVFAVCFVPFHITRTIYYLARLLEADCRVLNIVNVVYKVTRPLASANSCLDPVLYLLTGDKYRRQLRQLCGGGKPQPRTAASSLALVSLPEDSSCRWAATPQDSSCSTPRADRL

P2Y purinoceptor 4 [4] = target: T3, P2Y purinoceptor 4; assay: Agonist activity at human P2Y4 receptor expressed in 1321N1 cells assessed as IP accumulation by SPA; type: functional, cell-based
Target sequence in this assay (P51582 whole entry): as above

P2Y purinoceptor 2 [5] = target: T1, P2Y purinoceptor 2; assay: Agonist activity at human P2Y2 receptor expressed in 1321N1 cells assessed as IP accumulation by SPA at 100 uM; type: functional, cell-based
P2Y purinoceptor 2 [6] = target: T1, P2Y purinoceptor 2; assay: Agonist activity at human P2Y2 receptor expressed in 1321N1 cells assessed as IP accumulation by SPA at 1 uM; type: functional, cell-based
P2Y purinoceptor 6 [7] = target: T2, P2Y purinoceptor 6; assay: Agonist activity at human P2Y6 receptor expressed in 1321N1 cells assessed as IP accumulation by SPA; type: functional, cell-based
Target sequence in this assay (Q15077 whole entry): as the sequence (Q15077 whole entry) above

P2Y purinoceptor 6 [8] = target: T2, P2Y purinoceptor 6; assay: Agonist activity at human P2Y6 receptor expressed in 1321N1 cells assessed as IP accumulation by SPA at 100 uM; type: functional, cell-based
Target sequence in this assay (Q15077 whole entry): as above

P2Y purinoceptor 6 [9] = target: T2, P2Y purinoceptor 6; assay: Antagonist activity at human P2Y6 receptor assessed as inhibition of UDP-induced IP accumulation at 100 uM
Target sequence in this assay (Q15077 whole entry, looked up): as the sequence (Q15077 whole entry) above

P2Y purinoceptor 4 [10] = target: T3, P2Y purinoceptor 4; assay: Antagonist activity at human P2Y4 receptor assessed as inhibition of UTP-induced IP accumulation at 100 uM
Target sequence in this assay (P51582 whole entry, looked up): as the sequence (P51582 whole entry) above

P2Y purinoceptor 2 [11] = target: T1, P2Y purinoceptor 2; assay: Antagonist activity at human P2Y2 receptor assessed as inhibition of UTP-induced IP accumulation at 100 uM; type: functional
Homo sapiens [12] = species on record: Homo sapiens; assay: Selectivity for human P2Y6 over P2Y4
P2Y purinoceptor 6 [13] = target: P2Y purinoceptor 6 (Rattus norvegicus, UniProt Q63371); assay: Agonist activity at rat P2Y6 receptor assessed as IP accumulation by SPA; type: functional
P2Y purinoceptor 6 (Rattus norvegicus, UniProt Q63371), sequence (Q63371 whole entry): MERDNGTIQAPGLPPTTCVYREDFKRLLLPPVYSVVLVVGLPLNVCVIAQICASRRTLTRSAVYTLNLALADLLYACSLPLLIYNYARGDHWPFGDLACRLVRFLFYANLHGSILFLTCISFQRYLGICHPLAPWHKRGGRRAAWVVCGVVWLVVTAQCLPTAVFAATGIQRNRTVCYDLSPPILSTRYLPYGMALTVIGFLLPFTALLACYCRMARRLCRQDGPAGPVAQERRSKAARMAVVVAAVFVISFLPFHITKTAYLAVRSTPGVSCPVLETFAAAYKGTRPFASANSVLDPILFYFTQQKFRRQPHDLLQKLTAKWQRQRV

Homo sapiens [14] = species on record: Homo sapiens; assay: Selectivity for human P2Y6 over P2Y2
P2Y purinoceptor 4 [15] = target: T3, P2Y purinoceptor 4; assay: Agonist activity at human P2Y4 receptor expressed in 1321N1 cells assessed as IP accumulation by SPA at 1 uM; type: functional, cell-based
Target sequence in this assay (P51582 whole entry): as the sequence (P51582 whole entry) above

Row | SMILES | pEC50 (P2Y purinoceptor 2 [1]) | Activity (P2Y purinoceptor 6 [2]) [%] | Activity (P2Y purinoceptor 4 [3]) [%] | pEC50 (P2Y purinoceptor 4 [4]) | Activity (P2Y purinoceptor 2 [5]) [%] | Activity (P2Y purinoceptor 2 [6]) [%] | pEC50 (P2Y purinoceptor 6 [7]) | Activity (P2Y purinoceptor 6 [8]) [%] | Activity (P2Y purinoceptor 6 [9]) | Activity (P2Y purinoceptor 4 [10]) | Activity (P2Y purinoceptor 2 [11]) | Ratio (Homo sapiens [12]) | pEC50 (P2Y purinoceptor 6 [13]) | Ratio (Homo sapiens [14]) | Activity (P2Y purinoceptor 4 [15]) [%]
1 | O=c1cc(O)n([C@@H]2O[C@H](COP(=O)(O)O)[C@@H](O)[C@H]2O)c(=O)[nH]1 | < 4.00 |  | 11 | < 4.00 | 11 |  | < 4.00 | 0 |  |  |  |  |  |  | 
2 | O=c1ccn([C@@H]2O[C@H](COP(=O)(O)OP(=O)(O)OP(=O)(O)O)[C@@H](O)[C@H]2O)c(=S)[nH]1 | 7.30 | 44 |  | 5.75 |  |  | < 6.00 | 118 |  |  |  |  |  |  | 
3 | CCCc1cc(=O)n([C@@H]2O[C@H](COP(=O)(O)OP(=O)(O)OP(=O)(O)O)[C@@H](O)[C@H]2O)c(=O)[nH]1 | < 6.00 | 0 | 4 | < 4.00 | 83 | 16 | < 4.00 | 23 | inactive | inactive | inactive |  |  |  | 
4 | O=C(Cn1c(=O)ccn([C@@H]2O[C@H](COP(=O)(O)OP(=O)(O)O)[C@@H](O)[C@H]2O)c1=O)c1ccccc1 | < 6.00 |  | 11 | < 4.00 | 85 | 22 | 7.15 |  |  |  |  |  |  |  | 
5 | Cn1c(=O)ccn([C@@H]2O[C@H](COP(=O)(O)OP(=O)(O)O)[C@@H](O)[C@H]2O)c1=O | < 6.00 | 8 | 0 | < 4.00 | 99 | 10 | < 6.00 | 121 |  |  |  |  |  |  | 
6 | O=c1[nH]c(=O)n([C@@H]2O[C@H](COP(=O)(O)OP(=O)(O)C(Cl)(Cl)P(=O)(O)O)[C@@H](O)[C@H]2O)cc1Br | 6.45 |  |  | 5.40 |  |  | 6.92 |  |  |  |  |  |  |  | 
7 | O=C(Cn1c(=O)ccn([C@@H]2O[C@H](COP(=O)(O)OP(=O)(O)OP(=O)(O)O)[C@@H](O)[C@H]2O)c1=O)c1ccccc1 | < 6.00 | 27 | 54 | < 6.00 | 103 | 38 | < 6.00 | 100 |  |  |  |  |  |  | 10
8 | O=c1ccn([C@@H]2O[C@H](COP(=O)(O)OP(=O)(O)OP(=O)(O)O)[C@@H](O)[C@H]2O)c(=O)[nH]1 [URIDINE TRIPHOSPHATE] | 7.37 |  |  | 7.06 |  |  |  |  |  |  |  |  |  |  | 
9 | O=c1cc(O)n([C@@H]2O[C@H](COP(=O)(O)OP(=O)(O)OP(=O)(O)O)[C@@H](O)[C@H]2O)c(=O)[nH]1 | < 6.00 | 0 | 12 | < 4.00 | 80 | 6 | < 4.00 | 43 | inactive | inactive | inactive |  |  |  | 11
10 | CCCc1cc(=O)n([C@@H]2O[C@H](COP(=O)(O)O)[C@@H](O)[C@H]2O)c(=O)[nH]1 | < 4.00 |  | 5 | < 4.00 | 9 |  | < 4.00 | 26 |  |  |  |  |  |  | 
11 | O=c1[nH]c(=O)n([C@@H]2O[C@H](COP(=O)(O)O)[C@@H](O)[C@H]2O)cc1Br | < 6.00 | 43 | 21 | < 4.00 | 70 | 2 | < 6.00 | 124 |  |  |  |  |  |  | 
12 | Cc1cc(=O)n([C@@H]2O[C@H](COP(=O)(O)OP(=O)(O)OP(=O)(O)O)[C@@H](O)[C@H]2O)c(=O)[nH]1 | < 6.00 | 0 | 29 | < 4.00 | 93 | 18 | < 6.00 | 72 | inactive | inactive | inactive |  |  |  | 8
13 | O=c1[nH]c(=O)n([C@@H]2O[C@H](COP(=O)(O)OP(=O)(O)OP(=O)(O)O)[C@@H](O)[C@H]2O)cc1Br | 6.46 |  |  | 5.46 |  |  | 6.54 |  |  |  |  |  |  |  | 

The remaining lines, values ahead:

Row | pEC50 (P2Y purinoceptor 2 [1]) | Activity (P2Y purinoceptor 6 [2]) [%] | Activity (P2Y purinoceptor 4 [3]) [%] | pEC50 (P2Y purinoceptor 4 [4]) | Activity (P2Y purinoceptor 2 [5]) [%] | Activity (P2Y purinoceptor 2 [6]) [%] | pEC50 (P2Y purinoceptor 6 [7]) | Activity (P2Y purinoceptor 6 [8]) [%] | Activity (P2Y purinoceptor 6 [9]) | Activity (P2Y purinoceptor 4 [10]) | Activity (P2Y purinoceptor 2 [11]) | Ratio (Homo sapiens [12]) | pEC50 (P2Y purinoceptor 6 [13]) | Ratio (Homo sapiens [14]) | Activity (P2Y purinoceptor 4 [15]) [%] | SMILES
14 | < 6.00 | 0 | 7 | < 4.00 | 69 | 25 | < 6.00 | 108 |  |  |  |  |  |  |  | Cc1cc(=O)n([C@@H]2O[C@H](COP(=O)(O)OP(=O)(O)O)[C@@H](O)[C@H]2O)c(=O)[nH]1
15 | 6.25 | 2 |  | 5.53 |  |  | < 6.00 | 109 |  |  |  |  |  |  |  | Cn1c(=O)ccn([C@@H]2O[C@H](COP(=O)(O)OP(=O)(O)OP(=O)(O)O)[C@@H](O)[C@H]2O)c1=O
16 | < 4.00 | 0 | 3 | < 4.00 | 30 | 3 | ≤ 4.00 | 51 |  |  |  |  |  |  |  | Cn1c(=O)ccn([C@@H]2O[C@H](COP(=O)(O)O)[C@@H](O)[C@H]2O)c1=O
17 | < 6.00 |  | 1 | < 4.00 | 69 | 24 | < 4.00 | 8 |  |  |  |  |  |  |  | CCCc1cc(=O)n([C@@H]2O[C@H](COP(=O)(O)OP(=O)(O)OP(=O)(O)O)[C@H]3OP(=O)(O)O[C@H]32)c(=O)[nH]1
18 | 5.44 |  |  | 5.14 |  |  | 6.82 |  |  |  |  | 48 | 6.89 | 24 |  | O=c1[nH]c(=O)n([C@@H]2O[C@H](COP(=O)(O)OP(=O)(O)O)[C@@H](O)[C@H]2O)cc1Br
19 | < 4.00 |  | 2 | < 4.00 | 9 |  | < 4.00 | 16 | inactive | inactive | inactive |  |  |  |  | O=C(Cn1c(=O)ccn([C@@H]2O[C@H](COP(=O)(O)O)[C@@H](O)[C@H]2O)c1=O)c1ccccc1
20 | < 6.00 |  | 73 | < 6.00 | 91 | 42 | 6.62 |  |  |  |  |  |  |  | 18 | O=c1ccn([C@@H]2O[C@H](COP(=O)(O)OP(=O)(O)O)[C@@H](O)[C@H]2O)c(=S)[nH]1
21 |  |  |  |  |  |  | 7.38 |  |  |  |  |  |  |  |  | O=c1ccn([C@@H]2O[C@H](COP(=O)(O)OP(=O)(O)O)[C@@H](O)[C@H]2O)c(=O)[nH]1 [URIDINE_DIPHOSPHATE]
22 | < 4.00 |  | 6 | < 4.00 | 17 |  | < 4.00 | 2 |  |  |  |  |  |  |  | Cc1cc(=O)n([C@@H]2O[C@H](COP(=O)(O)O)[C@@H](O)[C@H]2O)c(=O)[nH]1
23 | ≤ 4.00 |  | 2 | < 4.00 | 51 | 6 | < 4.00 | 18 |  |  |  |  |  |  |  | O=c1ccn([C@@H]2O[C@H](COP(=O)(O)O)[C@@H](O)[C@H]2O)c(=S)[nH]1
24 | < 4.00 |  | 0 | < 4.00 | 28 |  | < 6.00 | 23 | inactive |  |  |  |  |  |  | CCCc1cc(=O)n([C@@H]2O[C@H](COP(=O)(O)OP(=O)(O)O)[C@@H](O)[C@H]2O)c(=O)[nH]1
25 | ≥ 6.00 | 0 | 0 | < 4.00 | 107 | 54 | < 6.00 | 75 |  |  |  |  |  |  |  | O=C(Cn1c(=O)ccn([C@@H]2O[C@H](COP(=O)(O)OP(=O)(O)OP(=O)(O)O)[C@@H](O)[C@H]2OP(=O)(O)O)c1=O)c1ccccc1
